Where two headings read alike, the source gives them in different places. Blank lines part the entries; values can stand above or below the compound they belong to.
Experiments:
[1] = tested on: biosynthesis of PGD2; assay: Rofecoxib single dose in healthy volunteers, urinary PGD2 metabolites; format: in vivo, human; details: rofecoxib 25 mg single dose, 0 vs 4 hours
Experimental: (§1) Urine analysis: ^18O2-2,3-dinor-11β-PGF2α, and ^18O^2-11β-PGF2α were added to 1 milliliter (ml) of human urine or […] of mouse urine and were allowed to equilibrate for 15 minutes. […] The resulting residue was then reconstituted with 100 μl of 5% acetonitrile in water and was filtered by centrifugation.
(§2) The ESI source used nitrogen for both sheath and auxiliary gas and was set at 70 and 5 (arbitrary units), respectively. The mass spectrometer was operated in the negative ion mode with a capillary temperature of 350° C. and a spray voltage of 2.0 kV. […] The transitions for endogenous 2,3-dinor-11β-PGF2α and ^18O2-2,3-dinor-11β-PGF2α, were m/z 325→145 and m/z 329→145 with CE 13 eV, respectively. They were m/z […] and m/z 357→197 for 9α,11β-PGF2α and ^18O2-9α,11β-PGF2α with CE 24 eV.
(§3) Clinical Studies: Four clinical studies were performed.
In a third study, 18 healthy volunteers (9 male and 9 female) received, in random order, a single dose of placebo or rofecoxib (25 mg) under double-blind conditions, separated by washout periods of at least 2 weeks. Urinary PGD2 metabolites were assessed at 0 and 4 hours in spot urine samples that were collected 30 minutes after voiding.
(§4) Results are expressed as mean+/−SEM.

[2] = tested on: PGD2 levels; assay: Urinary tetranor PGDM in patients undergoing PTCA; format: in vivo, human; details: for Level of tetranor-PGDM, Post-PTCA, no aspirin / Level of tetranor-PGDM, Pre-PTCA, no aspirin / Level of tetranor-PGDM, During-PTCA, no aspirin: patient (n=1) on clopidogrel and no aspirin
Source text: PGD2 levels were studied in patients undergoing percutaneous transluminal coronary angioplasty (PTCA). PTCA is a common non-surgical treatment for opening obstructed coronary arteries. During PTCA, a balloon-tipped catheter is threaded from an artery in the groin to the trouble spot in the artery of the heart. The balloon is then inflated, thereby compressing the plaque and opening (dilating) the narrowed coronary artery so that blood flow is improved. In some instances, an expandable metal stent is also inserted; stents are wire mesh tubes used to counteract further constriction. The inclusion and exclusion criteria for participation in the PGD2 level assessment were as follows. Inclusion: • a. Males and females between the ages of 18-99. • b. […] Treated with any dose of aspirin (acetylsalicylic acid; ASA) daily for at least 5 days OR • 2. […] Treated with an alternative antiplatelet therapy, such as clopidogrel, due to an aspirin hypersensitivity or PMDs preference OR • 4. […] No aspirin therapy at all. • c. Patients presenting to the emergency room (ER) with Acute Coronary Syndrome (ACS) who will have a PTCA. • d. Patients with stable angina or positive stress tests scheduled for a cardiac catheterization. Exclusion: • a. History of unstable diabetes (Hgb A1c>8 or FBS>200). • b. Uncontrolled hypertension (SBP>180, DBP>100). • c. History of an acute confounding disease as judged on clinical screen that according to the investigator may interfere with interpretation of the study results, or compromise the safety of a potential subject. • d. […] Nineteen (19) subjects scheduled for elective PTCA and/or who presented to the emergency room with acute coronary syndrome and subsequently ordered a PTCA were screened according to the inclusion and exclusion criteria. […] Urine was collected from each subject at three times. […] Urine samples were kept at −80° C. The tetranor PDGM level in each sample was then determined by stable isotope dilution, tandem mass spectrometric quantification, following thawing of the sample. The tetranor PGDM level was normalized to the quantity in milligrams (mg) of urine creatinine.

[3] = Infusion of exogenous PGD2 i.p. into mice, urinary PGD2 metabolites; format: in vivo, mouse
Experimental: as §1, §2
Studies in mice: All studies were performed following protocol review and approval by the Institutional Animal Care and Use Committee (IAUCC) of the University of Pennsylvania. (i) Infusion studies: vehicle or PGD2 [20, 150 or 500 μg] was infused i.p. into twelve-week-old male C57/BL6 mice (n=5 per group). Urine was collected for 24 hours in metabolic cages for analysis of PGD2 metabolites. (ii) PGDS knockouts: Urine was collected for 24 hours from three- to four-month-old male wild type mice, L-PGDS knockout mice (kindly provided by Dr. Yoshihiro Urade, Osaka, Japan) and H-PGDS knockout mice (kindly provided by Dr. Yoshihide Kanaoka, Boston, Mass.), all on a C57/BL6 background (n=15 for WT and LPGDS knockouts and n=10 for H-PGDS knockouts).
as §4

[4] = Experimental: (§5) In a second study, niacin (dose was 400 mg or 600 mg) was administered to two healthy male volunteers. Urinary PGD2 metabolites were assessed in spot urines collected at the following time points before (time 0) and after (1, 2, 3, 4, 5, 6 hours) niacin administration.
[5] = tested on: biosynthesis of PGD2
Experimental: as §5

[6] = tested on: biosynthesis of PGD2; assay: Aspirin single dose in healthy volunteers, urinary PGD2 metabolites; format: in vivo, human; details: mean±SEM
Experimental: as §1, §2, §3
In a fourth study, a single dose of aspirin (325 mg) was administered to healthy volunteers (n=18; 9 males and 9 females). Urinary PGD2 metabolites were assessed at time 0 in spot urines and 0-4 hours in urine collected from 0-4 hrs after dosing.
as §4

[7] = mice, 20, 150 or 500 μg PGD2 i.p.
[8] = mice, maximal dose 500 ug PGD2 i.p., 24 h urine, mean±SEM
[9] = niacin 400 mg or 600 mg, spot urines 0-6 hours
[10] = time 0, before aspirin 325 mg single dose

Compound: CS(=O)(=O)c1ccc(C2=C(c3ccccc3)C(=O)OC2)cc1 [rofecoxib]
effect on urinary 2,3-dinor-11β-PGF2α [1]: failed to depress
effect on urinary tetranor PGDM [1]: failed to depress

Compound: O=C(O)CCCCC(=O)CC[C@H]1C(=O)C[C@H](O)[C@@H]1CCC(=O)O [tetranor PGDM, 11,15-dioxo-9α-hydroxy-2,3,4,5-tetranor-prostan-1,20-dioic acid]
Level of tetranor-PGDM, Post-PTCA, no aspirin ([2]; urine after procedure): 13.1 ng/mg creatinine
Level of tetranor-PGDM, Pre-PTCA, no aspirin ([2]; urine before procedure): 11.5 ng/mg creatinine
Level of tetranor-PGDM, During-PTCA, no aspirin ([2]; urine during procedure): 26.3 ng/mg creatinine

fractional conversion of PGD2 to each metabolite [3, 7]: uninfluenced by dose
response of all 3 urinary metabolites to PGD2 infusion [3, 7]: increased dose dependently
infused PGD2 excreted as the tetranor PGDM metabolite in mouse urine ([3]; mice, i.p. infusion): 3-10%
urinary 2,3-dinor-11β-PGF2α level attained after PGD2 infusion [3, 8]: 809±346 ng/mg creatinine
urinary 11β-PGF2α level attained after PGD2 infusion [3, 8]: 207±67 ng/mg creatinine
urinary tetranor PGDM level attained after PGD2 infusion [3, 8]: 2498±792 ng/mg creatinine
Compound: CCCCC[C@H](O)/C=C/[C@H]1C(=O)C[C@H](O)[C@@H]1C/C=C\CCCC(=O)O [PGD2, prostaglandin D2]

Compound: O=C(O)c1cccnc1 [niacin]
time after which flushing had dissipated ([4]; niacin 400 mg or 600 mg oral): 2 to 3 h
flushing after oral administration ([4]; niacin 400 mg or 600 mg, two volunteers, face and upper part of the body): intense flush
relationship between metabolite excretion and the doses of niacin ([5]; 400 mg vs 600 mg): not apparent
time of fall of urinary metabolites to basal levels after dosing ([5]; niacin 400 mg or 600 mg): 5 to 6 h
time of peak of urinary tetranor PGDM and 2,3-dinor-11β-PGF2α after dosing ([5]; niacin 400 mg or 600 mg): 2 to 3 h
effect on urinary 2,3-dinor-11β-PGF2α [5, 9]: elevated
effect on urinary tetranor PGDM [5, 9]: elevated

Compound: CC(=O)Oc1ccccc1C(=O)O [aspirin, acetylsalicylic acid]
Level of tetranor-PGDM, Post-PTCA, 81 mg aspirin ([2]; patients (n=3) on daily 81 mg aspirin, urine after procedure): 3.1 ng/mg creatinine
Level of tetranor-PGDM, Pre-PTCA, 81 mg aspirin ([2]; patients (n=3) on daily 81 mg aspirin, urine before procedure): 2.6 ng/mg creatinine
Level of tetranor-PGDM, During-PTCA, 81 mg aspirin ([2]; patients (n=3) on daily 81 mg aspirin, urine during procedure): 1.8 ng/mg creatinine
Level of tetranor-PGDM, Post-PTCA, 325 mg aspirin ([2]; patients on daily 325 mg aspirin, urine after procedure): 3.1 ng/mg creatinine
Level of tetranor-PGDM, Pre-PTCA, 325 mg aspirin ([2]; patients on daily 325 mg aspirin, urine before procedure): 2.9 ng/mg creatinine
Level of tetranor-PGDM, During-PTCA, 325 mg aspirin ([2]; patients on daily 325 mg aspirin, urine during procedure): 2.8 ng/mg creatinine
urinary tetranor PGDM level following aspirin ([6]; 0-4 hrs after aspirin 325 mg single dose, p<0.001): 0.86±0.07 ng/mg creatinine
urinary 2,3-dinor-11β-PGF2α level following aspirin ([6]; 0-4 hrs after aspirin 325 mg single dose, p<0.01): 0.32±0.04 ng/mg creatinine
urinary 2,3-dinor-11β-PGF2α level before aspirin [6, 10]: 0.63±0.11 ng/mg creatinine
urinary tetranor PGDM level before aspirin [6, 10]: 1.71±0.21 ng/mg creatinine

Compound: COC(=O)[C@H](c1ccccc1Cl)N1CCc2sccc2C1 [clopidogrel]
Level of tetranor-PGDM, Post-PTCA, no aspirin ([2]; urine after procedure): 13.1 ng/mg creatinine
Level of tetranor-PGDM, Pre-PTCA, no aspirin ([2]; urine before procedure): 11.5 ng/mg creatinine
Level of tetranor-PGDM, During-PTCA, no aspirin ([2]; urine during procedure): 26.3 ng/mg creatinine

Source: US8785682B2, “Tetranor PGDM: a biomarker of PGD2 synthesis in vivo” (The Trustees of the University of Pennsylvania, priority 2007, dated 2014)
